The numbers were not newly measured in patent publication US12256762B2, “Sweetener composition and methods of making it” (eBIO Nutritional Sciences LLC, priority 2017, dated 2025), which cites them from elsewhere.

The conditions of this data set: published partition coefficients.
For `CC/C=C\C/C=C\C/C=C\CCCCCCCC(=O)O` [Alpha-Linolenic C18:3], the “Partition Coefficient (log P)” value is listed as 6.59.

Cucurbitacin [reference compound]: the “Partition Coefficient (log P)” value is listed as 3.19.

As for `CCCCCCCC/C=C\CCCCCCCC(=O)O` [Oleic C18:1], the “Partition Coefficient (log P)” value is recorded as 7.68.

Consider `C=C1C[C@@]23CC[C@H]4[C@@](C)(CCC[C@@]4(C)C(=O)O)[C@@H]2CC[C@]1(O)C3` [Steviol, reference compound], for which the “Partition Coefficient (log P)” value was 3.18.

With `CCCCCCCCCCCCCCCC(=O)O` [Palmitic C16:0], the “Partition Coefficient (log P)” value is given as 7.23.

On to `CCCCC/C=C\C/C=C\CCCCCCCC(=O)O` [Linoleic C18:2], for which the “Partition Coefficient (log P)” value is 7.06.

As for `CCCCCCCCCCCCCCCCCC(=O)O` [Stearic C18:0], the “Partition Coefficient (log P)” value is recorded as 8.02.
